In ChEMBL document CHEMBL6120982, “Cell-penetrating anti-sense peptide nucleic acids targeting sulfatase 2 inhibit adipogenesis in human mesenchymal stem cells” (Bioorg Med Chem, 2024):
Activity calls are given as the source filed them. No cut-off for these calls is given here.

Legend:
[1] = Drug penetration in human BMMSC cells assessed as green fluorescence signal at 0.1 uM incubated for 24 hrs by DAPI staining based confocal microscopic analysis; format: ADME, cell-based; settings: mesenchymal stem cells
[2] = tested on: Mesenchymal stem cells; assay: Inhibition of SULF2 mRNA expression in human BMMSC cells at 0.1 uM by RT-qPCR analysis; format: functional, cell-based
[3] = tested on: DNA; assay: Binding affinity to C-terminal of 10-mer c-DNA (unknown origin) assessed as melting temperature at 4 uM by UV-Vis spectrophotometric analysis; format: nucleic-acid assay
[4] = tested on: Mesenchymal stem cells; assay: Inhibition of SULF2 mRNA expression in human BMMSC cells by RT-qPCR analysis; format: functional, cell-based; settings: dose 0.01-1 µM
[5] = tested on: Mesenchymal stem cells; assay: Cytotoxicity against human BMMSC cells assessed as effect on cell viability upto 1 uM incubated for 24 hrs by CCK8 assay; format: toxicity, cell-based
[6] = tested on: Mesenchymal stem cells; assay: Anti-adipogenic activity in insulin/dexamthasone/pioglitazone/IBMX differentiated human BMMSC cells assessed as downregulation of adiponectin protein secretion by ELISA; format: functional, cell-based
[7] = tested on: Mesenchymal stem cells; assay: Effect on osteogenesis in ascorbic acid/dexamethasone/beta-glycerol phosphate differentiated human BMMSC cells; format: functional, cell-based
[8] = tested on: DNA; assay: Binding affinity to N-terminal of 10-mer c-DNA (unknown origin) assessed as melting temperature at 4 uM by UV-Vis spectrophotometric analysis; format: nucleic-acid assay
[9] = tested on: Mesenchymal stem cells; assay: Anti-adipogenic activity in insulin/dexamthasone/pioglitazone/IBMX differentiated human BMMSC cells assessed as downregulation of adiponectin protein secretion at 1 uM by ELISA; format: functional, cell-based
[10] = tested on: DNA; assay: Binding affinity to 10-mer DNA (unknown origin) assessed as melting temperature at 4 uM by UV-Vis spectrophotometric analysis; format: nucleic-acid assay
[11] = tested on: DNA; assay: Binding affinity to c-DNA (unknown origin) with mismatch bases assessed as increase in melting temperature by UV-vis spectrophotometric analysis; format: nucleic-acid assay
[12] = tested on: Mesenchymal stem cells; assay: Anti-adipogenic activity in insulin/dexamthasone/pioglitazone/IBMX differentiated human BMMSC cells assessed as decrease in number of intracellular lipid droplets by Oil red O staining based inverted microscopic analysis; format: functional, cell-based; settings: dose 0.01-1 µM
[13] = tested on: Mesenchymal stem cells; assay: Anti-adipogenic activity in insulin/dexamthasone/pioglitazone/IBMX differentiated human BMMSC cells assessed as decrease in size of intracellular lipid droplets by Oil red O staining based inverted microscopic analysis; format: functional, cell-based; settings: dose 0.01-1 µM

SMILES | Drug uptake [1] | inhibition [2] | Tm [3] [°C] | inhibition [4] | Activity [5] | IC50 [6] [nM] | Activity [7] | Tm [8] [°C] | Activity [9] | Tm [10] [°C] | Activity [11] | Activity [12] | Activity [6] | Activity [13]
O=C(O)c1ccc2c(c1)C(=O)OC21c2ccc(O)cc2Oc2cc(O)ccc21 | Active | – | – | – | – | – | – | – | – | – | – | – | – | –
Cc1cn(CC(=O)N(CCNC(=O)CN(CCNC(=O)CN(CCNC(=O)CN(CCNC(=O)CN(CCNC(=O)CN(CCNC(=O)CN(CCNC(=O)CN(CCNC(=O)CN(CCNC(=O)CN(CCNC(=O)CN(CCNC(=O)CN(CCNC(=O)CN(CCNC(=O)CN(CCNC(=O)CN(CCNC(=O)CN(CCNC(=O)CN(CCNC(=O)OCCC2c3ccccc3-c3ccccc32)C(=O)Cn2cnc3c(=O)[nH]c(N)nc32)C(=O)Cn2cnc3c(=O)[nH]c(NCCCCCCN)nc32)C(=O)Cn2cnc3c(=O)[nH]c(N)nc32)C(=O)Cn2ccc(N)nc2=O)C(=O)Cn2cnc3c(N)nc(NCCCCCN)nc32)C(=O)Cn2cnc3c(=O)[nH]c(N)nc32)C(=O)Cn2ccc(N)nc2=O)C(=O)Cn2cnc3c(N)ncnc32)C(=O)Cn2ccc(N)nc2=O)C(=O)Cn2cnc3c(N)nc(NCCCCCN)nc32)C(=O)Cn2cc(C)c(=O)[nH]c2=O)C(=O)Cn2cnc3c(=O)[nH]c(N)nc32)C(=O)Cn2cnc3c(=O)[nH]c(N)nc32)C(=O)Cn2cnc3c(=O)[nH]c(NCCCCCCN)nc32)C(=O)Cn2cc(C)c(=O)[nH]c2=O)C(=O)Cn2cnc3c(=O)[nH]c(N)nc32)CC(N)=O)c(=O)[nH]c1=O | – | Active | 75.5 | Dose-dependent-effect | Non-toxic | > 1000 | inactive | 83.5 | Active | – | – | – | – | –
NCCCCCNc1nc(N)c2ncn(CC(=O)N(CCNC(=O)CN(CCNC(=O)CN(CCNC(=O)CN(CCN)C(=O)Cn3cnc4c(N)ncnc43)C(=O)Cn3cnc4c(=O)[nH]c(N)nc43)C(=O)Cn3ccc(N)nc3=O)CC(=O)NCCN(CC(=O)NCCN(CC(=O)NCCN(CC(=O)NCCN(CC(=O)NCCN(CC(=O)NCCN(CC(N)=O)C(=O)Cn3cnc4c(N)ncnc43)C(=O)Cn3ccc(N)nc3=O)C(=O)Cn3cnc4c(N)nc(NCCCCCN)nc43)C(=O)Cn3cnc4c(=O)[nH]c(N)nc43)C(=O)Cn3cnc4c(N)nc(NCCCCCN)nc43)C(=O)Cn3ccc(N)nc3=O)c2n1 | – | – | – | – | – | – | – | – | – | 73.6 | inactive | – | – | –
Cc1cn(CC(=O)N(CCNC(=O)CN(CCNC(=O)CN(CCNC(=O)CN(CCNC(=O)CN(CCNC(=O)CN(CCNC(=O)CN(CCNC(=O)CN(CCNC(=O)CN(CCNC(=O)CN(CCNC(=O)CN(CCNC(=O)OCCC2c3ccccc3-c3ccccc32)C(=O)Cn2cc(C)c(=O)[nH]c2=O)C(=O)Cn2cnc3c(=O)[nH]c(N)nc32)C(=O)Cn2cnc3c(=O)[nH]c(N)nc32)C(=O)Cn2cnc3c(N)nc(NCCCCCN)nc32)C(=O)Cn2cnc3c(=O)[nH]c(N)nc32)C(=O)Cn2cnc3c(=O)[nH]c(N)nc32)C(=O)Cn2cnc3c(N)nc(NCCCCCN)nc32)C(=O)CN2C=NC3C(=O)NC(N)=NC32)C(=O)Cn2ccc(N)nc2=O)C(=O)Cn2cnc3c(=O)[nH]c(NCCCCCCN)nc32)CC(=O)NCCN(CC(=O)NCCN(CC(=O)NCCN(CC(=O)NCCN(CC(=O)NCCN(CC(=O)NCCN(CC(=O)NCCN(CC(=O)NCCN(CC(=O)NCCN(N)C(=O)Cn2cnc3c(=O)[nH]c(N)nc32)C(=O)Cn2cnc3c(N)nc(NCCCCCN)nc32)C(=O)Cn2ccc(N)nc2=O)C(=O)Cn2cnc3c(N)ncnc32)C(=O)Cn2cnc3c(N)ncnc32)C(=O)Cn2cnc3c(=O)[nH]c(NCCCCCCN)nc32)C(=O)Cn2cnc3c(=O)[nH]c(N)nc32)C(=O)Cn2cnc3c(N)ncnc32)C(=O)Cn2cnc3c(=O)[nH]c(N)nc32)c(=O)[nH]c1=O (centres undefined) | – | Active | 64 | Dose-dependent-effect | Non-toxic | 280 | inactive | 68.1 | Active | – | – | Dose-dependent-effect | Dose-dependent-effect | Dose-dependent-effect
Cc1cn(CC(=O)N(CCNC(=O)CN(CCNC(=O)CN(CCNC(=O)CN(CCNC(=O)CN(CCNC(=O)CN(CCNC(=O)CN(CCNC(=O)CN(CCNC(=O)CN(CCNC(=O)CN(CCNC(=O)CN(CCNC(=O)CN(CCNC(=O)CN(CCNC(=O)CN(CCNC(=O)CN(CCNC(=O)CN(CCNC(=O)CN(CCNC(=O)CN(CCNC(=O)CN(CCNC(=O)OCCC2c3ccccc3-c3ccccc32)C(=O)Cn2ccc(N)nc2=O)C(=O)Cn2cc(C)c(=O)[nH]c2=O)C(=O)Cn2cc(C)c(=O)[nH]c2=O)C(=O)Cn2cc3cc(COCCN)[nH]c3nc2=O)C(=O)Cn2cc(C)c(=O)[nH]c2=O)C(=O)Cn2cc(C)c(=O)[nH]c2=O)C(=O)Cn2cc(C)c(=O)[nH]c2=O)C(=O)Cn2cc(C)c(=O)[nH]c2=O)C(=O)Cn2cc(C)c(=O)[nH]c2=O)C(=O)Cn2cc(C)c(=O)[nH]c2=O)C(=O)Cn2cc(C)c(=O)[nH]c2=O)C(=O)Cn2cnc3c(=O)[nH]c(NCCCCCCN)nc32)C(=O)Cn2ccc(N)nc2=O)C(=O)Cn2cc(C)c(=O)[nH]c2=O)C(=O)Cn2cnc3c(=O)[nH]c(N)nc32)C(=O)Cn2cnc3c(N)nc(NCCCCCN)nc32)C(=O)Cn2cc(C)c(=O)[nH]c2=O)C(=O)Cn2ccc(N)nc2=O)CC(=O)NCCN(CC(N)=O)C(=O)Cn2cnc3c(=O)[nH]c(NCCCCCCN)nc32)c(=O)[nH]c1=O | – | Mild_effect | 70 | Dose-dependent-effect | Non-toxic | > 1000 | inactive | – | Active | – | – | – | – | –
